Measured values published in patent US20260166162A1, “CARBON CHAIN SUBSTANCE FOR REGULATING TRANSMEMBRANE TRANSPORT AND FLUIDITY OF CELL MEMBRANES, AND PREPARATION AND USE THEREOF” (priority 2022, published 2026).
Where two headings read alike, the source gives them in different places.

Legend:
Assay type in all cases: cell-based
human pancreatic β-cells = test: Insulin secretion from human islet β cells (ELISA of supernatant); conditions: 6 h
HIV pseudovirus (18A-41) = conditions: 293T cells pretreated 4 h, n=3
[1] = test system: SARS-CoV-2 pseudovirus (B.1.526.2)
[2] = 100 μM, negative value = promotes infection

Substance	Insulin (human pancreatic β-cells; 2 nM)	Insulin (human pancreatic β-cells; 5 nM)	Insulin (human pancreatic β-cells; 10 nM)	Insulin (human pancreatic β-cells; 50 nM)	Insulin (human pancreatic β-cells; 50 μM)	Insulin (human pancreatic β-cells; 100 μM)	Inhibition rate (%) ([1]; 0.002 µM)	Inhibition rate (%) ([1]; 0.005 µM)	Inhibition rate (%) ([1]; 0.01 µM)	Inhibition rate (%) ([1]; 0.05 µM)	Inhibition rate (%) ([1]; 0.1 µM)	Inhibition rate (%) ([1]; 1 µM)	Inhibition rate (%) ([1]; 10 µM)	Inhibition rate (%) ([1]; 50 µM)	Inhibition rate (%) ([1]; 100 µM)	further results
Adenosine monophosphate-lauroic acid	0.37 ng/mL	0.38 ng/mL	0.43 ng/mL	0.49 ng/mL	1.49 ng/mL	1.53 ng/mL										
Glucosamine-n-octanoic acid																Inhibition rate (%) (HIV pseudovirus (18A-41); 2 nM): 22.59 ± 6.09%; Inhibition rate (%) (HIV pseudovirus (18A-41); 5 nM): 54.47 ± 2.09%; Inhibition rate (%) (HIV pseudovirus (18A-41); 10 nM): 78.34 ± 3.66%; Inhibition rate (%) (HIV pseudovirus (18A-41); 50 nM): 89.33 ± 3.65%; Inhibition rate (%) (HIV pseudovirus (18A-41); 100 nM): 88.76 ± 4.87%; Inhibition rate (%) (HIV pseudovirus (18A-41); 1 μM): -62.33 ± 3.93%; Inhibition rate (%) (HIV pseudovirus (18A-41); 10 μM): -84.26 ± 6.61%; Inhibition rate (%) (HIV pseudovirus (18A-41); 50 μM): 51.09 ± 9.38%; Inhibition rate (%) (HIV pseudovirus (18A-41); [2]): 53.68 ± 6.07%
Glucose-docosanedioic acid	0.25 ng/mL	0.27 ng/mL	0.41 ng/mL	0.50 ng/mL	1.41 ng/mL	1.46 ng/mL										
Glucose-hexadecanoic acid																Inhibition rate (%) (HIV pseudovirus (18A-41); 2 nM): 50.54 ± 1.56%; Inhibition rate (%) (HIV pseudovirus (18A-41); 5 nM): 57.26 ± 6.09%; Inhibition rate (%) (HIV pseudovirus (18A-41); 10 nM): 86.44 ± 5.03%; Inhibition rate (%) (HIV pseudovirus (18A-41); 50 nM): 85.46 ± 3.99%; Inhibition rate (%) (HIV pseudovirus (18A-41); 100 nM): 89.99 ± 5.07%; Inhibition rate (%) (HIV pseudovirus (18A-41); 1 μM): -94.23 ± 9.06%; Inhibition rate (%) (HIV pseudovirus (18A-41); 10 μM): -44.88 ± 1.03%; Inhibition rate (%) (HIV pseudovirus (18A-41); 50 μM): 87.59 ± 5.03%; Inhibition rate (%) (HIV pseudovirus (18A-41); [2]): 98.87 ± 6.03%
Glucose-pentadecanedioic acid	0.22 ng/mL	0.23 ng/mL	0.36 ng/mL	0.43 ng/mL	1.48 ng/mL	1.52 ng/mL										
Uridine diphosphate glucose-dodecanoic acid [UDPGA-C12]							56.54 ± 3.94%	79.66 ± 3.69%	91.38 ± 3.36%	81.33 ± 1.25%	87.47 ± 8.23%	-92.93 ± 0.58%	73.16 ± 0.59%	67.37 ± 0.54%	53.98 ± 0.78%	
Uridine diphosphate glucose-oleic acid [UDPGA-OA]							44.54 ± 1.23%	50.06 ± 1.05%	54.94 ± 1.84%	67.33 ± 1.00%	84.96 ± 4.55%	-82.33 ± 0.53%	-54.00 ± 0.23%	73.06 ± 0.26%	83.61 ± 0.88%	
Uridine diphosphate glucose-pentacosanoic acid [UDPGA-C25]							46.04 ± 0.98%	49.66 ± 0.58%	48.66 ± 1.59%	59.03 ± 1.25%	88.64 ± 4.53%	-12.03 ± 0.83%	-64.26 ± 0.59%	71.36 ± 0.88%	92.33 ± 0.73%	
cholylglycine-Ricinoleic acid [cholylglycine-C18-1-OH]																Inhibition rate (%) ([1]; 2 nM, n=3): 72.59 ± 5.58%; Inhibition rate (%) ([1]; 5 nM, n=3): 74.66 ± 1.25%; Inhibition rate (%) ([1]; 10 nM, n=3): 78.34 ± 2.55%; Inhibition rate (%) ([1]; 50 nM, n=3): 89.33 ± 2.25%; Inhibition rate (%) ([1]; 100 nM, n=3): 88.76 ± 4.58%; Inhibition rate (%) ([1]; 1 μM, n=3): -32.33 ± 0.57%; Inhibition rate (%) ([1]; 10 μM, n=3): -54.26 ± 0.88%; Inhibition rate (%) ([1]; 50 μM, n=3): 71.09 ± 0.58%; Inhibition rate (%) ([1]; 100 μM, n=3): 73.68 ± 0.71%
cholyltaurine-tetradecanoic acid [cholyltaurine-C14]																Inhibition rate (%) ([1]; 2 nM, n=3): 70.54 ± 3.20%; Inhibition rate (%) ([1]; 5 nM, n=3): 79.66 ± 5.66%; Inhibition rate (%) ([1]; 10 nM, n=3): 81.84 ± 4.57%; Inhibition rate (%) ([1]; 50 nM, n=3): 80.88 ± 1.22%; Inhibition rate (%) ([1]; 100 nM, n=3): 79.06 ± 2.22%; Inhibition rate (%) ([1]; 1 μM, n=3): -94.23 ± 5.55%; Inhibition rate (%) ([1]; 10 μM, n=3): 4.26 ± 0.95%; Inhibition rate (%) ([1]; 50 μM, n=3): 67.55 ± 0.25%; Inhibition rate (%) ([1]; 100 μM, n=3): 58.98 ± 0.44%
